Assay results from publication doi:10.1101/2022.03.12.484055v1 (biorxiv, 2022).

What follows are compounds tested against T1, ASIC1 (hASIC1; ASIC1a as primary isoform in tsA-201 cells) (Homo sapiens, UniProt P78348) (assay: cell-based). Settings: tsA201, read-out: % inhibition @ 30 µM.
T1 sequence (P78348 1-528): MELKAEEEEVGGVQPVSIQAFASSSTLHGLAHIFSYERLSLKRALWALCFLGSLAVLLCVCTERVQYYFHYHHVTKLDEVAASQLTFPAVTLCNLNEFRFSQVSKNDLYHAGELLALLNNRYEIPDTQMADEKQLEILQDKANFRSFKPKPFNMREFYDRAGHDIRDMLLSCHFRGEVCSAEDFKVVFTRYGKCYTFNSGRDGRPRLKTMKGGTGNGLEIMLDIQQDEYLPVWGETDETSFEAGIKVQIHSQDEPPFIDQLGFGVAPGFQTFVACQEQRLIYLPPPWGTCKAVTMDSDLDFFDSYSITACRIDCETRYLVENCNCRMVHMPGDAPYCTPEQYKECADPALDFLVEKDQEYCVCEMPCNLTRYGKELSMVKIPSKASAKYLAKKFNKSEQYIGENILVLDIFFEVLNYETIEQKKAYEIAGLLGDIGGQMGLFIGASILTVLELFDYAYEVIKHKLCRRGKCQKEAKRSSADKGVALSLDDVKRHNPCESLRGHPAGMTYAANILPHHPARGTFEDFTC
In the case of N#CCCNc1nc(N)c(C(=O)NC(=N)N)nc1Cl [compound 89], the inhibition at 30 µM is reported as 80%.
Cc1ccc(S(=O)(=O)NCCNc2nc(N)c(C(=O)NC(=N)N)nc2Cl)cc1 [compound 91] showed an inhibition at 30 µM of 79%.
Work on N=C(NC(=O)c1nc(Cl)c(N)nc1N)Nc1ccccc1 [compound 96, 96] yielded an inhibition at 30 µM of 94%.
In the case of CC(C)c1ccc(C(=O)NC(=N)N)cc1S(C)(=O)=O [compound 95, 95], the inhibition at 30 µM is reported as 37%.
N=C(N)NC(=O)c1nc(Cl)c(NCCP(=O)(O)O)nc1N [compound 90, 90] gave an inhibition at 30 µM of 81%.
Work on N=C(N)NC(=O)c1ccccc1 [compound 92, 92] yielded an inhibition at 30 µM of 22%.
Compound N=C(N)NC(=O)c1nc(Cl)c(NCc2ccccc2)nc1N [compound 87] has an inhibition at 30 µM of 90%.
For N=C(N)NC(=O)c1nc(I)c(N)nc1N [compound 97], the inhibition at 30 µM was 95%.
N=C(N)NC(=O)c1ccccn1 [compound 93, 93] gave an inhibition at 30 µM of 22%.
Work on N=C(N)NC(=O)c1nc(Cl)c(NCCc2ccccc2)nc1N [compound 88] yielded an inhibition at 30 µM of 91%.

Biological target: T1, ASIC1 (hASIC1; ASIC1a as primary isoform in tsA-201 cells)
Experiment: cell-based
Settings: tsA201, read-out: % inhibition @ 30 µM
Remark: another data set of the same source
In the case of N=C(N)NC(=O)c1nc(Cl)c(N2CCOCC2)nc1N [compound 80, 80], the inhibition at 30 µM is reported as 75%.
N=C(N)NC(=O)c1nc(Cl)c(N2CCCOCC2)nc1N [compound 83, 83] gave an inhibition at 30 µM of 67%.
With COc1ncc(-c2nc(C(=O)NC(=N)N)c(N)nc2N2CCCOCC2)cn1 [compound 85, 85] the inhibition at 30 µM was 8%.
Work on N=C(N)NC(=O)c1nc(-c2ccc(C(F)(F)F)cc2)c(C2CC2)nc1N [compound 79, 79] yielded an inhibition at 30 µM of 65%.
N=C(N)NC(=O)c1nc(-c2cc3ccccc3o2)c(N2CCCOCC2)nc1N [compound 86, 86] was tested, and the inhibition at 30 µM was 26%.
With N=C(N)NC(=O)c1nc(-c2ccc(C(F)(F)F)cc2)c(N2CCCC2)nc1N [compound 78, 78] the inhibition at 30 µM was 78%.
With N=C(N)NC(=O)c1nc(-c2cncnc2)c(N2CCCOCC2)nc1N [compound 84, 84] the inhibition at 30 µM was 14%.

Biological target: T1, ASIC1 (hASIC1; ASIC1a as primary isoform in tsA-201 cells)
Experiment: cell-based
Settings: tsA201, read-out: % inhibition @ 30 µM
Remark: another data set of the same source
Nc1nc(N2CCCCCC2)c(-c2cc3ccccc3o2)nc1C(=O)O [compound 68, 68] showed an inhibition at 30 µM of 6%.
Work on N=C(N)NC(=O)c1nc(-c2cnc(N)nc2)c(N2CCCCCC2)nc1N [compound 73, 73] yielded an inhibition at 30 µM of 6%.
CN(C)CCC(=O)c1nc(-c2cc3ccccc3o2)c(N2CCCCCC2)nc1N [compound 72, 72] gave an inhibition at 30 µM of 31%.
Compound N=C(N)NC(=O)c1nc(-c2cnc(NCCO)nc2)c(N2CCCCCC2)nc1N [compound 76, 76] has an inhibition at 30 µM of 6%.
With Nc1nnc(-c2nc(-c3cc4ccccc4o3)c(N3CCCCCC3)nc2N)[nH]1 [compound 70, 70] the inhibition at 30 µM was 15%.
COC(=O)c1nc(-c2cc3ccccc3o2)c(N2CCCCCC2)nc1N [compound 67, 67] was tested, and the inhibition at 30 µM was 9%.
In the case of CN(C)C(=O)c1nc(-c2cc3ccccc3o2)c(N2CCCCCC2)nc1N [compound 69, 69], the inhibition at 30 µM is reported as 10%.
Compound CNc1ncc(-c2nc(C(=O)NC(=N)N)c(N)nc2N2CCCCCC2)cn1 [compound 74, 74] has an inhibition at 30 µM of 27%.
CC(C)Nc1ncc(-c2nc(C(=O)NC(=N)N)c(N)nc2N2CCCCCC2)cn1 [compound 75, 75] showed an inhibition at 30 µM of 11%.
Compound Nc1noc(-c2nc(-c3cc4ccccc4o3)c(N3CCCCCC3)nc2N)n1 [compound 71, 71] has an inhibition at 30 µM of 8%.

Biological target: T1, ASIC1 (hASIC1; ASIC1a as primary isoform in tsA-201 cells)
Experiment: cell-based
Settings: tsA201, read-out: % inhibition @ 30 µM
Remark: another data set of the same source
With N#Cc1ccc2oc(-c3nc(C(=O)NC(=N)N)c(N)nc3N3CCCCCC3)cc2c1 [compound 32, 32] the inhibition at 30 µM was 64%.
With N=C(N)NC(=O)c1nc(-c2cc3ccccc3s2)c(N)nc1N [compound 18, 18] the inhibition at 30 µM was 45%.
Work on COc1ncc(-c2nc(C(=O)NC(=N)N)c(N)nc2N)cn1 [compound 46] yielded an inhibition at 30 µM of 34%.
N=C(N)NC(=O)c1nc(-c2ccc3c(c2)CCO3)c(N2CCCCCC2)nc1N [compound 42, 42] was tested, and the inhibition at 30 µM was 49%.
For N=C(N)NC(=O)c1nc(-c2cncnc2)c(N2CCCCCC2)nc1N [compound 45, 45], the inhibition at 30 µM was 25%.
N#Cc1ccc2oc(-c3nc(C(=O)NC(=N)N)c(N)nc3N)cc2c1 [compound 31, 31] was tested, and the inhibition at 30 µM was 30%.
N=C(N)NC(=O)c1nc(-c2cc3cc(F)ccc3o2)c(N2CCCCCC2)nc1N [compound 24, 24] showed an inhibition at 30 µM of 58%.
N=C(N)NC(=O)c1nc(-c2cc3cc(Cl)ccc3o2)c(N)nc1N [compound 25, 25] gave an inhibition at 30 µM of 69%.
CC(C)(C)c1ccc2oc(-c3nc(C(=O)NC(=N)N)c(N)nc3N3CCCCCC3)cc2c1 [compound 22, 22] gave an inhibition at 30 µM of 44%.
N=C(N)NC(=O)c1nc(-c2cc3cnccc3o2)c(N)nc1N [compound 39, 39] showed an inhibition at 30 µM of 36%.
N=C(N)NC(=O)c1nc(-c2cc3ncccc3o2)c(N)nc1N [compound 37, 37] showed an inhibition at 30 µM of 17%.
Work on N=C(N)NC(=O)c1nc(-c2cc3cc(Br)ccc3o2)c(N)nc1N [compound 27, 27] yielded an inhibition at 30 µM of 45%.
Compound N=C(N)NC(=O)c1nc(-c2cc3ccccc3s2)c(N2CCCCCC2)nc1N [compound 19, 19] has an inhibition at 30 µM of 67%.
Work on N=C(N)NC(=O)c1nc(-c2ccc(C(F)(F)F)cc2)c(N)nc1N [compound 48, 48] yielded an inhibition at 30 µM of 44%.
With COc1ccc2oc(-c3nc(C(=O)NC(=N)N)c(N)nc3N3CCCCCC3)cc2c1 [compound 30, 30] the inhibition at 30 µM was 35%.
Cc1ccc2oc(-c3nc(C(=O)NC(=N)N)c(N)nc3N)cc2c1 [compound 20, 20] gave an inhibition at 30 µM of 65%.
N=C(N)NC(=O)c1nc(-c2ccco2)c(N2CCCCCC2)nc1N [compound 15, 15] was tested, and the inhibition at 30 µM was 46%.
With COc1ncc(-c2nc(C(=O)NC(=N)N)c(N)nc2N2CCCCCC2)cn1 [compound 47] the inhibition at 30 µM was 33%.
For N=C(N)NC(=O)c1nc(-c2ccc3occc3c2)c(N2CCCCCC2)nc1N [compound 44, 44], the inhibition at 30 µM was 23%.
Compound N=C(N)NC(=O)c1nc(Cl)c(N)nc1N [compound 11, amiloride] has an inhibition at 30 µM of 88%.
In the case of Cn1cc(-c2nc(C(=O)NC(=N)N)c(N)nc2N2CCCCCC2)cn1 [compound 50, 50], the inhibition at 30 µM is reported as 53%.
For N=C(N)NC(=O)c1nc(Cl)c(N2CCCCCC2)nc1N [compound 13, HMA], the inhibition at 30 µM was 79%.
N=C(N)NC(=O)c1nc(-c2ccc3occc3c2)c(N)nc1N [compound 43, 43] showed an inhibition at 30 µM of 59%.
Work on COc1ccc2cc(-c3nc(C(=O)NC(=N)N)c(N)nc3N)oc2c1 [compound 33, 33] yielded an inhibition at 30 µM of 68%.
With N=C(N)NC(=O)c1nc(-c2cc3cnccc3o2)c(N2CCCCCC2)nc1N [compound 40, 40] the inhibition at 30 µM was 21%.
N=C(N)NC(=O)c1nc(-c2ccc(C(F)(F)F)cc2)c(N2CCCCCC2)nc1N [compound 49, 49] was tested, and the inhibition at 30 µM was 67%.
In the case of N=C(N)NC(=O)c1nc(-c2cc3cc(Cl)ccc3o2)c(N2CCCCCC2)nc1N [compound 26, 26], the inhibition at 30 µM is reported as 35%.
Compound N=C(N)NC(=O)c1nc(-c2cc3cc(F)cc(F)c3o2)c(N2CCCCCC2)nc1N [compound 36, 36] has an inhibition at 30 µM of 69%.
In the case of N=C(N)NC(=O)c1nc(-c2ccc3c(c2)CCO3)c(N)nc1N [compound 41, 41], the inhibition at 30 µM is reported as 22%.
N=C(N)NC(=O)c1nc(-c2cc3cc(Br)ccc3o2)c(N2CCCCCC2)nc1N [compound 28, 28] showed an inhibition at 30 µM of 59%.
In the case of N=C(N)NC(=O)c1nc(-c2cc3ccccc3o2)c(N2CCCCCC2)nc1N [compound 17], the inhibition at 30 µM is reported as 64%.
With N=C(N)NC(=O)c1nc(-c2cc3ncccc3o2)c(N2CCCCCC2)nc1N [compound 38, 38] the inhibition at 30 µM was 20%.
